# Results published in ChEMBL document CHEMBL1201862, “PubChem BioAssay data set” (2004).
#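 These data come from cells grown in 96-well plates and exposed to compound for 48 hours at five concentrations. GI50 marks 50% less growth.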 The source made the active and inactive calls. No stated cut-off is given here; in the data, active = GI50 up to about 1.1 µM and inactive = higher.
# Key:
# Assay in all cases: growth of human tumour cells (NCI), 48 h
# [1] = test system: 786-0
# [2] = test system: A498
# [3] = test system: A549
# [4] = test system: ACHN
# [5] = test system: BT-549
# [6] = test system: CAKI-1
# [7] = test system: CCRF-CEM
# [8] = test system: COLO 205
# [9] = test system: DU-145
# [10] = test system: EKVX
# [11] = test system: HCC 2998
# [12] = test system: HCT-116
# [13] = test system: HCT-15
# [14] = test system: HL-60
# [15] = test system: HOP-62
# [16] = test system: HOP-92
# [17] = test system: HT-29
# [18] = test system: Hs-578T
# [19] = test system: IGROV-1
# [20] = test system: K562
# [21] = test system: KM12
# [22] = test system: LOX IMVI
# [23] = test system: M14
# [24] = test system: MCF7
# [25] = test system: MDA-MB-231
# [26] = test system: MDA-MB-435
# [27] = test system: MDA-N
# [28] = test system: Malme-3M
# [29] = test system: NCI-H226
# [30] = test system: NCI-H23
# [31] = test system: NCI-H460
# [32] = test system: NCI-H522
# [33] = test system: NCI/ADR-RES
# [34] = test system: OVCAR-3
# [35] = test system: OVCAR-4
# [36] = test system: OVCAR-5
# [37] = test system: OVCAR-8
# [38] = test system: PC-3
# [39] = test system: RPMI-8226
# [40] = test system: RXF 393
# [41] = test system: SF-268
# [42] = test system: SF-295
# [43] = test system: SF-539
# [44] = test system: SK-MEL-28
# [45] = test system: SK-MEL-2
# [46] = test system: SK-MEL-5
# [47] = test system: SK-OV-3
# [48] = test system: SN12C
# [49] = test system: SNB-19
# [50] = test system: SNB-75
# [51] = test system: SW-620
# [52] = test system: T47D
# [53] = test system: TK-10
# [54] = test system: U-251
# [55] = test system: UACC-257
# [56] = test system: UACC-62
# [57] = test system: UO-31
# [58] = test system: MOLT-4
# [59] = test system: SR
structure (smiles),measurement,setting,value
CC(=O)OC[C@@]1(C)[C@@H]2[C@@H]3[C@@]4(CO[C@]3(C)C(=O)[C@@]3(OC(C)=O)C[C@H](C)[C@H](OC(C)=O)[C@@H]3[C@H]4OC(C)=O)[C@H](OC(=O)c3ccccc3)C[C@@H]21,GI50,[1],> 100 µM (inactive)
same,GI50,[2],> 100 µM (inactive)
same,GI50,[3],74.1 µM (inactive)
same,GI50,[4],> 100 µM (inactive)
same,GI50,[5],> 100 µM (inactive)
same,GI50,[6],> 100 µM (inactive)
same,GI50,[7],32.8 µM (inactive)
same,GI50,[8],49.8 µM (inactive)
same,GI50,[9],> 100 µM (inactive)
same,GI50,[10],63.2 µM (inactive)
same,GI50,[11],> 100 µM (inactive)
same,GI50,[12],67.9 µM (inactive)
same,GI50,[13],> 100 µM
same,GI50,[14],63.8 µM (inactive)
same,GI50,[15],> 100 µM (inactive)
same,GI50,[16],> 100 µM (inactive)
same,GI50,[17],89.9 µM (inactive)
same,GI50,[18],> 100 µM (inactive)
same,GI50,[19],> 100 µM (inactive)
same,GI50,[20],24 µM (inactive)
same,GI50,[21],> 100 µM (inactive)
same,GI50,[22],79.6 µM (inactive)
same,GI50,[23],91.4 µM (inactive)
same,GI50,[24],81.8 µM (inactive)
same,GI50,[25],> 100 µM (inactive)
same,GI50,[26],> 100 µM (inactive)
same,GI50,[27],> 100 µM (inactive)
same,GI50,[28],> 100 µM (inactive)
same,GI50,[29],> 100 µM (inactive)
same,GI50,[30],> 100 µM (inactive)
same,GI50,[31],59 µM (inactive)
same,GI50,[32],> 100 µM (inactive)
same,GI50,[33],> 100 µM (inactive)
same,GI50,[34],> 100 µM (inactive)
same,GI50,[35],> 100 µM (inactive)
same,GI50,[36],> 100 µM (inactive)
same,GI50,[37],> 100 µM (inactive)
same,GI50,[38],45.6 µM (inactive)
same,GI50,[39],19 µM (inactive)
same,GI50,[40],> 100 µM (inactive)
same,GI50,[41],> 100 µM (inactive)
same,GI50,[42],93.3 µM (inactive)
same,GI50,[43],> 100 µM (inactive)
same,GI50,[44],> 100 µM (inactive)
same,GI50,[45],> 100 µM (inactive)
same,GI50,[46],> 100 µM (inactive)
same,GI50,[47],> 100 µM (inactive)
same,GI50,[48],> 100 µM (inactive)
same,GI50,[49],> 100 µM (inactive)
same,GI50,[50],> 100 µM (inactive)
same,GI50,[51],78.5 µM (inactive)
same,GI50,[52],66.2 µM (inactive)
same,GI50,[53],> 100 µM (inactive)
same,GI50,[54],> 100 µM (inactive)
same,GI50,[55],> 100 µM (inactive)
same,GI50,[56],> 100 µM (inactive)
same,GI50,[57],99.8 µM (inactive)
O=C(NN=C1NCCCN1)c1ccco1,GI50,[1],> 100 µM (inactive)
same,GI50,[3],> 100 µM (inactive)
same,GI50,[4],> 100 µM (inactive)
same,GI50,[5],> 100 µM (inactive)
same,GI50,[7],> 100 µM (inactive)
same,GI50,[8],> 100 µM (inactive)
same,GI50,[9],> 100 µM (inactive)
same,GI50,[10],> 100 µM (inactive)
same,GI50,[11],> 100 µM (inactive)
same,GI50,[12],> 100 µM (inactive)
same,GI50,[13],> 100 µM
same,GI50,[14],> 100 µM (inactive)
same,GI50,[15],> 100 µM (inactive)
same,GI50,[16],> 100 µM (inactive)
same,GI50,[17],> 100 µM (inactive)
same,GI50,[18],> 100 µM (inactive)
same,GI50,[19],> 100 µM (inactive)
same,GI50,[20],> 100 µM (inactive)
same,GI50,[21],> 100 µM (inactive)
same,GI50,[22],> 100 µM (inactive)
same,GI50,[23],> 100 µM (inactive)
same,GI50,[24],> 100 µM (inactive)
same,GI50,[25],> 100 µM (inactive)
same,GI50,[26],> 100 µM (inactive)
same,GI50,[27],> 100 µM (inactive)
same,GI50,[58],> 100 µM (inactive)
same,GI50,[28],> 100 µM (inactive)
same,GI50,[29],> 100 µM (inactive)
same,GI50,[30],> 100 µM (inactive)
same,GI50,[31],> 100 µM (inactive)
same,GI50,[32],> 100 µM (inactive)
same,GI50,[33],> 100 µM (inactive)
same,GI50,[34],> 100 µM (inactive)
same,GI50,[35],> 100 µM (inactive)
same,GI50,[36],> 100 µM (inactive)
same,GI50,[37],> 100 µM (inactive)
same,GI50,[38],> 100 µM (inactive)
same,GI50,[39],> 100 µM (inactive)
same,GI50,[40],> 100 µM (inactive)
same,GI50,[41],> 100 µM (inactive)
same,GI50,[42],> 100 µM (inactive)
same,GI50,[43],> 100 µM (inactive)
same,GI50,[44],> 100 µM (inactive)
same,GI50,[45],> 100 µM (inactive)
same,GI50,[46],> 100 µM (inactive)
same,GI50,[47],> 100 µM (inactive)
same,GI50,[48],> 100 µM (inactive)
same,GI50,[49],> 100 µM (inactive)
same,GI50,[50],> 100 µM (inactive)
same,GI50,[59],> 100 µM (inactive)
same,GI50,[51],> 100 µM (inactive)
same,GI50,[52],> 100 µM (inactive)
same,GI50,[53],> 100 µM (inactive)
same,GI50,[54],> 100 µM (inactive)
same,GI50,[55],> 100 µM (inactive)
same,GI50,[56],> 100 µM (inactive)
same,GI50,[57],> 100 µM (inactive)
